Measurements published in patent US9732094B2, “Arylquinazolines” (Merck Patent GmbH, priority 2013, dated 2017).
Where two headings read alike, the source gives them in different places.

Experiments:
[1] = target: DNA-PK phosphorylation at serine 2056 (Homo sapiens (Human), UniProt P78527); assay: DNA-PK phosphorylation at serine 2056 (cellular), bleomycin-treated HCT116 cells, ELISA; assay type: cell-based; details: HCT116 cells, read-out: IC50 pDNA-PK
Procedure, shortened: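 HCT116, MEM alpha + 10% FCS, 37 °C/10% CO2, seeded o/n. Cpd + 10 μM bleomycin, 6 h. ELISA, chemiluminescence; phospho/total DNA-PKcs ratio, DMSO = blank.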

Kv11.1 (hERG) = Kv11.1 (hERG) (Homo sapiens (Human), UniProt Q12809); assay: Kv11.1 (hERG) ion channel activity (patch clamp assay), HEK293 cells transfected with hERG gene
Chain of Kv11.1 (hERG) (Q12809 whole entry): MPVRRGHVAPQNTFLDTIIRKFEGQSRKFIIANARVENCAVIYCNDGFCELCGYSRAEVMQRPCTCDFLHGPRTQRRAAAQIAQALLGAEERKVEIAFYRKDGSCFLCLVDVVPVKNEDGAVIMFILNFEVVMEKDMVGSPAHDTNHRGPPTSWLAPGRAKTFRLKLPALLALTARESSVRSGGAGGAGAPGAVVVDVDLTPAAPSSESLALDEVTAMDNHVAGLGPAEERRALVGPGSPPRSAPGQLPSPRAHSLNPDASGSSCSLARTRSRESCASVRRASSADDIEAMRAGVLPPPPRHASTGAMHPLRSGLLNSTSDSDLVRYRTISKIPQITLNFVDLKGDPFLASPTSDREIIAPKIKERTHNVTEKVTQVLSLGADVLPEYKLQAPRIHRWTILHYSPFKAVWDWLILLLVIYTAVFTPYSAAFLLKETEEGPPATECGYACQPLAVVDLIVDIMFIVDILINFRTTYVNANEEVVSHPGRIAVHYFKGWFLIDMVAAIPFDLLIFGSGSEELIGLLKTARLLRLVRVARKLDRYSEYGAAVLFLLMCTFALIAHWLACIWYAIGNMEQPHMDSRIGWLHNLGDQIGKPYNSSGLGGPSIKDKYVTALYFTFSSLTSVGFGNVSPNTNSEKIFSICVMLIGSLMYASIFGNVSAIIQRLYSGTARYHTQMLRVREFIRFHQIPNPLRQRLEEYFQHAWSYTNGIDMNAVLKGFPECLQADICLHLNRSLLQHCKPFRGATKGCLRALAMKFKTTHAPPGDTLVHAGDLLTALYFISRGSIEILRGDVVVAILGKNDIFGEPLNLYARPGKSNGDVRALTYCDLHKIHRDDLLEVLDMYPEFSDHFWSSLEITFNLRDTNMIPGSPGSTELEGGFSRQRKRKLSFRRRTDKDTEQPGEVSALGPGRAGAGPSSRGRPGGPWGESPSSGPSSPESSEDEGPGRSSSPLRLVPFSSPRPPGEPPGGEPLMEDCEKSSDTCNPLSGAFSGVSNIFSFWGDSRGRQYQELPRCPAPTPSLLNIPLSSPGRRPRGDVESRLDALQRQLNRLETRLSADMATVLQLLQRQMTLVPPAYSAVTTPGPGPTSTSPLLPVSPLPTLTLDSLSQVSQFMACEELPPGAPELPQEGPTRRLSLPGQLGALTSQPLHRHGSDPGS

DNA-PK = DNA-PK (Homo sapiens (Human), UniProt P78527); assay: DNA-PK assay (biochemical), flashplate 33P-ATP kinase assay
Procedure, shortened: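 Reactions ran in streptavidin-coated flashplates and were halted by 200 mM EDTA, with a further 30 min at room temperature before saline washing.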

[2] = read-out: Ki [Kv1.11 hERG], Table 5
[3] = cellular, 10 μM bleomycin, six hours

OC(c1cc(F)c(F)c(-c2ncnc3cc(N4CCOCC4)ccc23)c1)c1nccs1 (stereo not drawn) [Example 171, [3,4-Difluoro-5-(7-morpholin-4-yl-quinazolin-4-yl)-phenyl]thiazol-2-yl-methanol] was tested, and the IC50 ([1]; Table 5) was 0.5 to 5 µM, the Ki (Kv11.1 (hERG); [2]) was < 10 µM and the IC50 (DNA-PK; Table 5) was < 0.003 µM.

OC(c1cccc(-c2ncnc3cc(N4CCOCC4)ccc23)c1)(c1nccs1)C(F)(F)F (stereo not drawn) [Example 173, 2,2,2-Trifluoro-1-[3-(7-morpholin-4-yl-quinazolin-4-yl)-phenyl)-1-thiazol-2-ylethanol] was tested, and the IC50 ([1]; Table 5) was 5 to 10 µM, the Ki (Kv11.1 (hERG); [2]) was < 10 µM and the IC50 (DNA-PK; Table 5) was < 0.003 µM.

With COC(c1ccc(F)c(-c2ncnc3cc(N4CCOCC4)ccc23)c1)c1nccs1 (stereo not drawn) [Example 177, 4-[2-Fluoro-5-(-methoxythiazol-2-ylmethyl)phenyl]-7-morpholin-4-yl-quinazoline] the IC50 ([1]; Table 5) was 10 to 30 µM, the Ki (Kv11.1 (hERG); [2]) was > 25 µM and the IC50 (DNA-PK; Table 5) was 0.003 to 0.007 µM.

With OC(c1cc(F)c(F)c(-c2ncnc3cc(N4CCOCC4)ccc23)c1)c1nccs1 (stereo not drawn) [Example 178, [3,4-Difluoro-5-(7-morpholin-4-yl-quinazolin-4-yl)-phenyl)thiazol-2-yl-methanol] the IC50 ([1]; Table 5) was 0.5 to 5 µM, the Ki (Kv11.1 (hERG); [2]) was > 25 µM and the IC50 (DNA-PK; Table 5) was < 0.003 µM.

For OC(c1cc(F)c(F)c(-c2ncnc3cc(N4CCOCC4)ccc23)c1)c1nccs1 (stereo not drawn) [Example 179, [3,4-Difluoro-5-(7-morpholin-4-yl-quinazolin-4-yl)-phenyl]thiazol-2-yl-methanol], the IC50 ([1]; Table 5) was 0.5 to 5 µM, the Ki (Kv11.1 (hERG); [2]) was < 10 µM and the IC50 (DNA-PK; Table 5) was 0.003 to 0.007 µM.

OC(c1cnc(F)c(-c2ncnc3cc(N4CCOCC4)ccc23)c1)c1nccs1 (stereo not drawn) [Example 180, [6-Fluoro-5-(7-morpholin-4-yl-quinazolin-4-yl)-pyridin-3-yl]thiazol-2-ylmethanol] was tested, and the IC50 ([1]; Table 5) was 5 to 10 µM, the Ki (Kv11.1 (hERG); [2]) was < 10 µM and the IC50 (DNA-PK; Table 5) was < 0.003 µM.

For Cc1csc(C(O)c2cc(-c3ncnc4cc(N5CCOCC5)ccc34)c(F)cc2Cl)n1 (stereo not drawn) [Example 181, [2-Chloro-4-fluoro-5-(7-morpholin-4-yl-quinazolin-4-yl)-phenyl]-(4-methyl-thiazol-2-yl)-methanol], the IC50 ([1]; Table 5) was 0.5 to 5 µM, the Ki (Kv11.1 (hERG); [2]) was < 10 µM and the IC50 (DNA-PK; Table 5) was < 0.003 µM.

In the case of OCc1csc([C@@H](O)c2cc(-c3ncnc4cc(N5CCOCC5)ccc34)c(F)cc2Cl)n1 [Example 185, (S)-[2-Chloro-4-fluoro-5-(7-morpholin-4-yl-quinazolin-4-yl)-phenyl]-(4-hydroxymethyl-thiazol-2-yl)-methanol], the IC50 ([1]; Table 5) is reported as 0.5 to 5 µM, the Ki (Kv11.1 (hERG); [2]) is reported as > 25 µM and the IC50 (DNA-PK; Table 5) is reported as < 0.003 µM.

With OCc1csc([C@H](O)c2cc(-c3ncnc4cc(N5CCOCC5)ccc34)c(F)cc2Cl)n1 [Example 186, (R)-[2-Chloro-4-fluoro-5-(7-morpholin-4-yl-quinazolin-4-yl)-phenyl]-(4-hydroxymethyl-thiazol-2-yl)-methanol] the IC50 ([1]; Table 5) was 5 to 10 µM, the Ki (Kv11.1 (hERG); [2]) was < 10 µM and the IC50 (DNA-PK; Table 5) was 0.007 to 0.03 µM.

In the case of OC(c1cnc(F)c(-c2ncnc3cc(N4CCOCC4)ccc23)c1)c1nccs1 (stereo not drawn) [Example 188, [6-Fluoro-5-(7-morpholin-4-yl-quinazolin-4-yl)-pyridin-3-yl]thiazol-2-ylmethanol], the IC50 ([1]; Table 5) is reported as 5 to 10 µM, the Ki (Kv11.1 (hERG); [2]) is reported as > 25 µM and the IC50 (DNA-PK; Table 5) is reported as < 0.003 µM.

OC(c1cnc(F)c(-c2ncnc3cc(N4CCOCC4)ccc23)c1)c1nccs1 (stereo not drawn) [Example 189, [6-Fluoro-5-(7-morpholin-4-yl-quinazolin-4-yl)-pyridin-3-yl]thiazol-2-ylmethanol] gave an IC50 ([1]; Table 5) of 0.5 to 5 µM, a Ki (Kv11.1 (hERG); Ki [Kv1.11 hERG], Table 5) of 15 to 25 µM and an IC50 (DNA-PK; Table 5) of 0.003 to 0.007 µM.

For Cn1cc(C(O)c2ccc(F)c(-c3ncnc4cc(N5CCOCC5)ccc34)c2)cn1 (stereo not drawn) [Example 191, [4-Fluoro-3-(7-morpholin-4-yl-quinazolin-4-yl)-phenyl]-(1-methyl-1H-pyrazol-4-yl)-methanol], the IC50 ([1]; Table 5) was 10 to 30 µM, the Ki (Kv11.1 (hERG); [2]) was > 25 µM and the IC50 (DNA-PK; Table 5) was < 0.003 µM.

For Cc1nc(C(O)c2cnc(F)c(-c3ncnc4cc(N5CCOCC5)ncc34)c2)sc1C (stereo not drawn) [Example 196, (4,5-Dimethyl-thiazol-2-yl)-[6-fluoro-5-(7-morpholin-4-yl-pyrido[4,3-d)-pyrimidin-4-yl)-pyridin-3-yl]-methanol], the IC50 ([1]; Table 5) was 10 to 30 µM, the Ki (Kv11.1 (hERG); [2]) was > 25 µM and the IC50 (DNA-PK; Table 5) was 0.007 to 0.03 µM.

For CC(C)n1cc(C(O)c2ccc(F)c(-c3ncnc4cc(N5CCOCC5)ccc34)c2)cn1 (stereo not drawn) [Example 197, [4-Fluoro-3-(7-morpholin-4-yl-quinazolin-4-yl)-phenyl]-(1-isopropyl-1H-pyrazol-4-yl)-methanol], the IC50 ([1]; Table 5) was 5 to 10 µM, the Ki (Kv11.1 (hERG); [2]) was < 10 µM and the IC50 (DNA-PK; Table 5) was 0.003 to 0.007 µM.

For Fc1ccc(C(OC(F)F)c2nccs2)cc1-c1ncnc2cc(N3CCOCC3)ccc12 (stereo not drawn) [Example 199, 4-[5-(Difluoro-methoxy-thiazol-2-ylmethyl)-2-fluoro-phenyl]-7-morpholin-4-yl-quinazoline], the IC50 ([1]; Table 5) was 10 to 30 µM, the Ki (Kv11.1 (hERG); [2]) was < 10 µM and the IC50 (DNA-PK; Table 5) was 0.003 to 0.007 µM.

For Cc1nc(C(O)c2ccc(F)c(-c3ncnc4cc(N5CCOCC5)ccc34)c2)sc1CO (stereo not drawn) [Example 200, [4-Fluoro-3-(7-morpholin-4-yl-quinazolin-4-yl)-phenyl]-(5-hydroxy-methyl-4-methyl-thiazol-2-yl)-methanol], the IC50 ([1]; Table 5) was 5 to 10 µM, the Ki (Kv11.1 (hERG); [2]) was > 25 µM and the IC50 (DNA-PK; Table 5) was 0.003 to 0.007 µM.

CC(O)c1csc(C(O)c2cc(-c3ncnc4cc(N5CCOCC5)ccc34)c(F)cc2Cl)n1 (stereo not drawn) [Example 201, 1-(2-{[2-Chloro-4-fluoro-5-(7-morpholin-4-yl-quinazolin-4-yl)-phenyl]hydroxy-methyl}thiazol-4-yl)-ethanol] showed an IC50 ([1]; Table 5) of 0.5 to 5 µM, a Ki (Kv11.1 (hERG); Ki [Kv1.11 hERG], Table 5) of 15 to 25 µM and an IC50 (DNA-PK; Table 5) of 0.003 to 0.007 µM.

Work on CCn1cc(C(O)c2cc(-c3ncnc4cc(N5CCOCC5)ccc34)c(F)cc2Cl)cn1 (stereo not drawn) [Example 202, [2-Chloro-4-fluoro-5-(7-morpholin-4-ylquinazolin-4-yl)-phenyl]-(1-ethyl-1H-pyrazol-4-yl)-methanol] yielded an IC50 ([1]; Table 5) of 0.5 to 5 µM, a Ki (Kv11.1 (hERG); Ki [Kv1.11 hERG], Table 5) of 15 to 25 µM and an IC50 (DNA-PK; Table 5) of 0.007 to 0.03 µM.

For Cc1nc(C(O)c2cnc(F)c(-c3ncnc4cc(N5CCOCC5)ncc34)c2)sc1C (stereo not drawn) [Example 203, (4,5-Dimethyl-thiazol-2-yl)-[6-fluoro-5-(7-morpholin-4-yl-pyrido[4,3-d}-pyrimidin-4-yl)-pyridin-3-yl]-methanol], the IC50 ([1]; Table 5) was 10 to 30 µM, the Ki (Kv11.1 (hERG); [2]) was > 25 µM and the IC50 (DNA-PK; Table 5) was > 0.03 µM.

With Cc1nc([C@H](O)c2cnc(F)c(-c3ncnc4cc(N5CCOCC5)ncc34)c2)sc1C [Example 204, (R)-(4,5-Dimethyl-thiazol-2-yl)-[6-fluoro-5-(7-morpholin-4-yl-pyrido[4,3-d}-pyrimidin-4-yl)-pyridin-3-yl]-methanol] the IC50 ([1]; Table 5) was 10 to 30 µM, the Ki (Kv11.1 (hERG); Ki [Kv1.11 hERG], Table 5) was 10 to 15 µM and the IC50 (DNA-PK; Table 5) was > 0.03 µM.

Compound Cc1nc(C(O)c2cc(-c3ncnc4cc(N5CCOCC5)ccc34)cnc2F)sc1C (stereo not drawn) [Example 205, (4,5-Dimethyl-thiazol-2-yl)-[2-fluoro-5-(7-morpholin-4-yl-quinazolin-4-yl)-pyridin-3-yl]-methanol] has an IC50 ([1]; Table 5) of 10 to 30 µM, a Ki (Kv11.1 (hERG); Ki [Kv1.11 hERG], Table 5) of 10 to 15 µM and an IC50 (DNA-PK; Table 5) of 0.007 to 0.03 µM.

Cc1cc(F)c(-c2ncnc3cc(N4CCOCC4)ccc23)cc1C(O)c1nccs1 (stereo not drawn) [Example 207, [4-Fluoro-2-methyl-5-(7-morpholinylquinazolin-4-yl)phenyl]thiazol-2-ylmethanol] was tested, and the IC50 [1, 3] was 0.5 to 5 µM, the Ki (Kv11.1 (hERG); Ki [Kv1.11 hERG], patch clamp, HEK293 transfected with hERG gene) was 15 to 25 µM and the IC50 (DNA-PK; enzymatic, 5 μM ATP) was < 0.003 µM.

With C#Cc1nc(-c2cc(C(O)c3nccs3)ccc2F)c2ccc(N3CCOCC3)cc2n1 (stereo not drawn) [Example 208, [3-(2-Ethynyl-7-morpholinylquinazolin-4-yl)-4-fluorophenyl]thiazol-2-ylmethanol] the IC50 [1, 3] was 0.5 to 5 µM, the Ki (Kv11.1 (hERG); read-out: Ki [Kv1.11 hERG], patch clamp, HEK293 transfected with hERG gene) was < 10 µM and the IC50 (DNA-PK; enzymatic, 5 μM ATP) was 0.003 to 0.007 µM.
